Where only a bound is given, the exact number is not on record here.

One test deals with T1, Neutrophil elastase (Homo sapiens, UniProt P08246).
T1 sequence (P08246 whole entry): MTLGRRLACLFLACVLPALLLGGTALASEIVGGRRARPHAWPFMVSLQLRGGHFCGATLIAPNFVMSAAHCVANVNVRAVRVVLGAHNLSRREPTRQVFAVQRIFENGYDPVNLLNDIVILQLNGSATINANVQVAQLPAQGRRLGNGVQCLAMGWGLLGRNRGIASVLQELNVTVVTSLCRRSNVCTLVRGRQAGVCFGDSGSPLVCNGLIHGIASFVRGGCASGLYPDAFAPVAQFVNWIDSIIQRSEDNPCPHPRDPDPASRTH
Kind of test: Inhibition of human neutrophil elastase pre-incubated for 30 mins before MeO-Suc-Ala-Ala-Pro-Val-AMC substrate addition by fluorometric assay.

Test [1] can be described thus: Selectivity index, ratio of cytotoxic EC50 for HEK293 cells to IC50 for human neutrophil elastase.
A further test relates to HEK293. The test can be described thus: Cytotoxicity against HEK293 cells. To be noted: Homo sapiens.

A word on the IC50: it is the concentration needed to halve the response being measured. As usually defined, the EC50 is the midpoint of the concentration-response curve. The low end stands for an effect from little substance, the high end for a need for much substance. Turning to `CN(C)c1ccc(/C=C2\Oc3ccccc3C2=O)cc1`, 2.9 µM corresponded to half-maximal inhibition on Neutrophil elastase (IC50). For the same compound, in test [1], the “Selectivity Index” value is listed as >20. For the same compound, the EC50 with HEK293 is > 100 µM.
The matching figures for `CN(C)c1ccc(/C=C2\Oc3cc(O)ccc3C2=O)cc1`: 5.1 µM, >20 and > 100 µM.
Consider `O=C1/C(=C/c2ccc(Br)cc2)Oc2ccccc21`, for which the EC50 in the test on HEK293 is > 100 µM.
On to `O=C1/C(=C/c2cccc(Br)c2)Oc2ccccc21`, for which the half-maximal inhibitory concentration (IC50) on Neutrophil elastase was > 10 µM. In test [1], the “Selectivity Index” value was >20. Besides, the EC50 in the test on HEK293 was > 100 µM.
Take `O=C1/C(=C/c2ccccc2Br)Oc2ccccc21`: in the test with HEK293, the EC50 was > 100 µM.
Regarding `O=C1/C(=C/c2ccc(-c3ccccc3)cc2)Oc2ccccc21`, in the test on HEK293, the EC50 is > 100 µM.
Same read-out and setting: the figure for `O=C1/C(=C/c2ccc(-c3ccc(F)cc3)cc2)Oc2ccccc21` is > 100 µM.
Consider `O=C1/C(=C/c2ccc(-c3ccc(Cl)cc3)cc2)Oc2ccccc21`, for which, in the test on HEK293, the EC50 is > 100 µM.
On the same count and under the same terms, for `O=Cc1ccc(-c2ccc(/C=C3\Oc4ccccc4C3=O)cc2)cc1` the value was > 100 µM; for `O=C1/C(=C/c2ccc(Cc3ccccc3)cc2)Oc2ccccc21`, > 100 µM.
On the same count and under the same terms, for `O=C1/C(=C/c2ccc(-c3cnc4ccccc4c3)cc2)Oc2ccccc21` the value was > 100 µM; for `Nc1ccc(-c2ccc(/C=C3\Oc4ccccc4C3=O)cc2)cn1`, > 100 µM; for `O=C1/C(=C/c2ccc(Nc3ccccc3)cc2)Oc2ccccc21`, > 100 µM.
Still for that read-out and setting: the figure for `O=C1/C(=C/c2ccc(NCc3ccccc3)cc2)Oc2ccccc21` is > 100 µM.
With `Cc1ccc(Oc2ccc(/C=C3\Oc4ccccc4C3=O)cc2)cc1`, the IC50 at Neutrophil elastase was > 10 µM. Further, in test [1], the “Selectivity Index” value is >20. For the same compound, the 50% effective concentration (EC50) in the test with HEK293 was > 100 µM.
For `O=C1/C(=C/c2ccc(Oc3ccc(Cl)cc3)cc2)Oc2ccccc21`, the EC50 in the test on HEK293 was > 100 µM.
The same measure, in the same setting: the figure for `O=C1/C(=C/c2cccc(-c3ccccc3)c2)Oc2ccccc21` is > 100 µM; for `O=C1/C(=C/c2cccc(-c3ccc(Cl)cc3)c2)Oc2ccccc21` it is > 100 µM.
The same measure, in the same setting: the figure for `O=Cc1ccc(-c2cccc(/C=C3\Oc4ccccc4C3=O)c2)cc1` is > 100 µM; for `O=C1/C(=C/c2cccc(Cc3ccccc3)c2)Oc2ccccc21` it is > 100 µM.
Turning to `COc1cccc2c1O/C(=C\c1ccccc1)C2=O`, in the test on HEK293, the EC50 is > 100 µM.
On the same count and under the same terms, the figure for `Cc1ccc(Oc2ccc(/C=C3\Oc4cc(O)ccc4C3=O)cc2)cc1` is > 100 µM.
The same measure, in the same setting: the figure for `O=C1/C(=C/c2ccc(Oc3ccc(Cl)cc3)cc2)Oc2cc(O)ccc21` is > 100 µM.
Still for that read-out and setting: the figure for `O=C1/C(=C/c2cccc(-c3cnc4ccccc4c3)c2)Oc2ccccc21` is > 100 µM; for `O=C1/C(=C/c2ccccc2)Oc2cc(O)ccc21` it is > 100 µM.

The values above are taken from ChEMBL document CHEMBL3751722, “Discovery of C-shaped aurone human neutrophil elastase inhibitors” (Medchemcomm, 2015).
